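Each compound was tested at five concentrations against cells in 96-well plates for 48 hours. Abbreviation: GI50, concentration required for 50% inhibition of growth.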 Active and inactive are the calls of the source. Cut-off read from the data, not from the text of the source: active = GI50 up to about 1.1 µM and inactive = higher.
Tests used:
Assay in all cases: NCI-60 cell line screen, 48 h
A549 = system: A549
ACHN = system: ACHN
HL-60 = system: HL-60
IGROV-1 = system: IGROV-1
MDA-MB-435 = system: MDA-MB-435
Malme-3M = system: Malme-3M
NCI-H23 = system: NCI-H23
NCI-H460 = system: NCI-H460
NCI-H522 = system: NCI-H522
NCI/ADR-RES = system: NCI/ADR-RES
SF-268 = system: SF-268
SK-MEL-28 = system: SK-MEL-28
SK-MEL-2 = system: SK-MEL-2
SK-MEL-5 = system: SK-MEL-5
SK-OV-3 = system: SK-OV-3
SNB-19 = system: SNB-19
UACC-257 = system: UACC-257
UACC-62 = system: UACC-62
HCC 2998 = system: HCC 2998
MCF7 = system: MCF7

Structure (SMILES) | GI50 (A549) | GI50 (ACHN) | GI50 (HL-60) | GI50 (IGROV-1) | GI50 (MDA-MB-435) | GI50 (Malme-3M) | GI50 (NCI-H23) | GI50 (NCI-H460) | GI50 (NCI-H522) | GI50 (NCI/ADR-RES) | GI50 (SF-268) | GI50 (SK-MEL-28) | GI50 (SK-MEL-2) | GI50 (SK-MEL-5) | GI50 (SK-OV-3) | GI50 (SNB-19) | GI50 (UACC-257) | GI50 (UACC-62) | GI50 (HCC 2998) | GI50 (MCF7)
CC1(C)C=CC(=O)C(O)C(C)(C)C1=O (stereo not given) | > 100 µM (inactive) | 98.4 µM (inactive) | 27.4 µM (inactive) | 89.1 µM (inactive) | 53.3 µM (inactive) | 17.5 µM (inactive) | 76.7 µM (inactive) | 29.7 µM (inactive) | 19.9 µM (inactive) | 72.4 µM (inactive) | 30.1 µM (inactive) | > 100 µM (inactive) | > 100 µM (inactive) | > 100 µM (inactive) | > 100 µM (inactive) | > 100 µM (inactive) | 18.8 µM (inactive) | 52.8 µM (inactive) |  | 
CC1(C)N=C(N)N=C(N)N1c1ccc(CCc2ccccc2)cc1 | 0.46 µM (active) |  | 13.3 µM (inactive) | 0.348 µM (active) |  | 2.2 µM (inactive) | 1.43 µM (inactive) | 0.508 µM (active) | 3.03 µM (inactive) | > 100 µM (inactive) | 0.618 µM (active) | 6.01 µM (inactive) | 8.85 µM (inactive) | 0.741 µM (active) | 48.4 µM (inactive) | 1.14 µM (inactive) | 2.96 µM (inactive) | 1.02 µM (active) | 2.14 µM (inactive) | 1.32 µM (inactive)
Cc1c2ccncc2c(C)c2c1[nH]c1ccccc12 [ELLIPTECINE] | 0.504 µM (active) |  | 0.883 µM (active) | 0.729 µM (active) |  | 2.01 µM (inactive) | 0.656 µM (active) | 0.15 µM (active) | 1.16 µM (inactive) | 0.659 µM (active) | 0.698 µM (active) | 1.5 µM (inactive) | 2.77 µM (inactive) | 0.944 µM (active) | 1.61 µM (inactive) | 0.826 µM (active) | 1.42 µM (inactive) | 1.48 µM (inactive) | 2.68 µM (inactive) | 0.571 µM (active)
Cc1ccnn1CCc1ccc(Cl)cc1Cl | 27.6 µM (inactive) | 27.9 µM (inactive) | 7.69 µM (inactive) | 29.6 µM (inactive) | 38.2 µM (inactive) | 30.1 µM (inactive) | 24.8 µM (inactive) | 27.2 µM (inactive) |  | 6.82 µM (inactive) | 27 µM (inactive) | 35.4 µM (inactive) |  | 19 µM (inactive) | 65.9 µM (inactive) | 28.6 µM (inactive) | 34.4 µM (inactive) | 8.73 µM (inactive) |  | 31.9 µM (inactive)
CN1c2ccccc2SC2C(c3ccccc3)=NOC21 (stereo not given) | 36.5 µM (inactive) | 52.6 µM (inactive) | 53.7 µM (inactive) | 41.6 µM (inactive) |  | 8.39 µM (inactive) | 23.1 µM (inactive) | 28.5 µM (inactive) | 30.1 µM (inactive) | 29.8 µM (inactive) | 51.8 µM (inactive) | 31.1 µM (inactive) | 38.5 µM (inactive) | > 10 µM (inactive) | 64.1 µM (inactive) | 73.3 µM (inactive) | > 10 µM (inactive) | 35.1 µM (inactive) | 23.3 µM (inactive) | 42.7 µM (inactive)
O=C1c2ccccc2C(O)(C(=O)O)C1(O)CC=C(Cl)Cl (stereo not given) | > 125 µM (inactive) |  | > 125 µM (inactive) | > 125 µM (inactive) |  | > 125 µM (inactive) | > 125 µM (inactive) | > 125 µM (inactive) | > 125 µM (inactive) | > 125 µM (inactive) | > 125 µM (inactive) | > 125 µM (inactive) | > 125 µM (inactive) | > 125 µM (inactive) | > 125 µM (inactive) | > 78.9 µM (inactive) | > 125 µM (inactive) | > 125 µM (inactive) | > 125 µM (inactive) | > 125 µM (inactive)
O=C(NCCCl)O/N=C/c1cccnc1 | > 100 µM (inactive) |  | > 100 µM (inactive) | > 100 µM (inactive) |  |  | > 100 µM (inactive) | > 100 µM (inactive) | > 100 µM (inactive) | > 100 µM (inactive) | > 100 µM (inactive) | > 100 µM (inactive) | > 100 µM (inactive) | > 100 µM (inactive) | > 100 µM (inactive) | > 100 µM (inactive) | > 100 µM (inactive) | > 100 µM (inactive) | > 100 µM (inactive) | > 100 µM (inactive)
O=C1Cc2c([nH]c3cc(Br)ccc23)-c2ccccc2N1 | 15.8 µM (inactive) | 17.5 µM (inactive) | 58.2 µM (inactive) | 16.4 µM (inactive) | 26.5 µM (inactive) | 20.8 µM (inactive) | 11.6 µM (inactive) | 15.5 µM (inactive) | 15 µM (inactive) |  | 25.2 µM (inactive) | > 100 µM (inactive) |  | 16 µM (inactive) | 19.9 µM (inactive) | 21.9 µM (inactive) |  | 12.6 µM (inactive) |  | 34.6 µM (inactive)
CC(C)CCCC(C)[C@H]1CCC(C2C[C@@H](O)[C@@H]3CC(O)[C@@H](O)C[C@]3(CO)C2=O)[C@]1(C)CCO (stereo not given in full) | 34 µM (inactive) |  | 16.1 µM (inactive) | 23.3 µM (inactive) |  | 23.1 µM (inactive) | 36.1 µM (inactive) | 21.8 µM (inactive) | 26.3 µM (inactive) | 37.6 µM (inactive) | 25 µM (inactive) | 21.8 µM (inactive) | 22.3 µM (inactive) | 14.2 µM (inactive) | 25.8 µM (inactive) | 28.4 µM (inactive) | 20 µM (inactive) | 19.2 µM (inactive) | 21.2 µM (inactive) | 14.2 µM (inactive)
CCn1c(=O)c(C(=O)O)c(Cl)c2cc3c(cc21)OCO3 | > 100 µM (inactive) |  | > 100 µM (inactive) | > 100 µM (inactive) |  | > 100 µM (inactive) | > 100 µM (inactive) | > 100 µM (inactive) | > 100 µM (inactive) | > 100 µM (inactive) | > 100 µM (inactive) | > 100 µM (inactive) | > 100 µM (inactive) | > 100 µM (inactive) | > 100 µM (inactive) | > 100 µM (inactive) | > 100 µM (inactive) | > 100 µM (inactive) | > 100 µM (inactive) | > 100 µM (inactive)
O=C1C(N2CCNCC2)=C(Cl)C(=O)c2ncccc21 | > 10 µM (inactive) | > 10 µM (inactive) |  | > 10 µM (inactive) | 4.6 µM (inactive) | > 10 µM (inactive) | > 10 µM (inactive) | > 10 µM (inactive) |  |  | > 10 µM (inactive) | > 10 µM (inactive) | > 10 µM (inactive) | 5.79 µM (inactive) | > 10 µM (inactive) | > 10 µM (inactive) | > 10 µM (inactive) | > 10 µM (inactive) | > 10 µM (inactive) | 3.02 µM (inactive)
CCCNC(C#N)c1ccc(C(C#N)NCCC)cc1 (stereo not given) | > 100 µM (inactive) | > 100 µM (inactive) | 40.8 µM (inactive) | > 100 µM (inactive) | 76.4 µM (inactive) | > 100 µM (inactive) | > 100 µM (inactive) | > 100 µM (inactive) | > 100 µM (inactive) | 50.2 µM (inactive) | > 100 µM (inactive) | > 100 µM (inactive) | > 100 µM (inactive) | > 100 µM (inactive) | > 100 µM (inactive) | > 100 µM (inactive) | > 100 µM (inactive) | > 100 µM (inactive) | > 100 µM (inactive) | 
C/C=C(\C)C(=O)OC1C2C(C)=CC(=O)C(O)C2(C)C2C3(O)OCC24C1OC(=O)C(OC(C)=O)C4C(C)C3O (stereo not given) | 0.0873 µM (active) |  | 0.0375 µM (active) | 0.0375 µM (active) |  |  | 0.043 µM (active) | 0.0375 µM (active) |  | 1.05 µM (active) | 0.0444 µM (active) | 0.0375 µM (active) | 0.0377 µM (active) |  | 0.144 µM (active) |  | 0.0375 µM (active) | 0.0375 µM (active) | 0.0415 µM (active) | 
OCC1OC(n2cnc3c2NC=NC[C@H]3O)C(O)C1O (stereo not given in full) | 396 µM (inactive) |  | 86.7 µM (inactive) | > 450 µM (inactive) |  | > 355 µM (inactive) | 445 µM (inactive) | 164 µM (inactive) | 312 µM (inactive) | > 436 µM (inactive) | > 384 µM (inactive) | > 450 µM (inactive) | 339 µM (inactive) | > 71.3 µM (inactive) | 234 µM (inactive) | > 450 µM (inactive) | > 450 µM (inactive) | > 450 µM (inactive) | > 330 µM (inactive) | > 450 µM (inactive)
CCOC(=O)c1sc2nc(SC)nc3c2c1NC(=O)CN3c1cccc(F)c1 | 14 µM (inactive) | 13 µM (inactive) | 0.491 µM (active) | 61.8 µM (inactive) | 27.5 µM (inactive) | 30.3 µM (inactive) | 27 µM (inactive) | 26.4 µM (inactive) | 26.5 µM (inactive) |  | 12.4 µM (inactive) | 0.138 µM (active) | 27.4 µM (inactive) | 0.855 µM (active) | 20 µM (inactive) | 20.3 µM (inactive) | 63.5 µM (inactive) | 30.5 µM (inactive) |  | 29 µM (inactive)
CCOP(=O)(OCC)C(Nc1ccc(C(=O)O)cc1)c1ccc(C(Nc2ccc(C(=O)O)cc2)P(=O)(OCC)OCC)cc1 (stereo not given) | > 100 µM (inactive) | > 100 µM (inactive) |  | > 100 µM (inactive) | > 100 µM (inactive) | > 100 µM (inactive) | > 100 µM (inactive) | > 100 µM (inactive) | > 100 µM (inactive) | > 100 µM (inactive) | > 100 µM (inactive) | > 100 µM (inactive) | > 100 µM (inactive) | > 100 µM (inactive) | > 100 µM (inactive) | > 100 µM (inactive) | > 100 µM (inactive) | > 100 µM (inactive) | > 100 µM (inactive) | 
